Measured values taken from PubChem BioAssay AID248 (DTP/NCI, 2004).
“And” between values parts separate entries of the source, which are not always exact repeats. Equal entries are not always repeated. Toxic doses and inconclusive results are not listed. Cut-off read from the data, not from the text of the source: active = T/C of 150% or more; inactive = T/C below 125%.

Tested on: L1210 leukemia ip in BDF1 mice, survival T/C
Experiment: NCI In Vivo Anticancer Drug Screen. Data for tumor model L1210 Leukemia (intraperitoneal) in B6D2F1 (BDF1) mice
Settings: endpoint: mean survival time, higher = longer survival
Summary of the method: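 Transplanted-tumor mice were given test agent; controls received vehicle only. Survival readings from the two groups were divided (treated over control).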

[1] = dose: 100.0 mg/kg/injection, schedule: Q01DX001 (ip), vehicle: saline
[2] = dose: 200.0 mg/kg/injection, schedule: Q01DX001 (ip), vehicle: saline
[3] = dose: 400.0 mg/kg/injection, schedule: Q01DX001 (ip), vehicle: saline
[4] = dose: 100.0 mg/kg/injection, schedule: Q01DX009 (ip), vehicle: saline with Tween-80
[5] = dose: 200.0 mg/kg/injection, schedule: Q01DX009 (ip), vehicle: saline with Tween-80
[6] = dose: 400.0 mg/kg/injection, schedule: Q01DX009 (ip), vehicle: saline with Tween-80
[7] = dose: 100.0 mg/kg/injection, schedule: Q04DX003 (ip), vehicle: saline with Tween-80
[8] = dose: 200.0 mg/kg/injection, schedule: Q04DX003 (ip), vehicle: saline with Tween-80
[9] = dose: 400.0 mg/kg/injection, schedule: Q04DX003 (ip), vehicle: saline with Tween-80
[10] = dose: 100.0 mg/kg/injection, schedule: Q01DX009 (ip), vehicle: Klucel (hydroxypropylcellulose) (HPC)
[11] = dose: 100.0 mg/kg/injection, schedule: Q04DX003 (ip), vehicle: Klucel (hydroxypropylcellulose) (HPC)
[12] = dose: 200.0 mg/kg/injection, schedule: Q01DX009 (ip), vehicle: Klucel (hydroxypropylcellulose) (HPC)
[13] = dose: 200.0 mg/kg/injection, schedule: Q04DX003 (ip), vehicle: Klucel (hydroxypropylcellulose) (HPC)
[14] = dose: 400.0 mg/kg/injection, schedule: Q01DX009 (ip), vehicle: Klucel (hydroxypropylcellulose) (HPC)
[15] = dose: 400.0 mg/kg/injection, schedule: Q04DX003 (ip), vehicle: Klucel (hydroxypropylcellulose) (HPC)
[16] = dose: 75.0 mg/kg/injection, schedule: Q01DX001 (ip), vehicle: carboxymethylcellulose (CMC)
[17] = dose: 100.0 mg/kg/injection, schedule: Q01DX009 (ip), vehicle: saline
[18] = dose: 100.0 mg/kg/injection, schedule: Q04DX003 (ip), vehicle: saline
[19] = dose: 200.0 mg/kg/injection, schedule: Q01DX009 (ip), vehicle: saline
[20] = dose: 200.0 mg/kg/injection, schedule: Q04DX003 (ip), vehicle: saline
[21] = dose: 400.0 mg/kg/injection, schedule: Q01DX009 (ip), vehicle: saline
[22] = dose: 400.0 mg/kg/injection, schedule: Q04DX003 (ip), vehicle: saline
[23] = dose: 100.0 mg/kg/injection, schedule: Q04DX002 (ip), vehicle: saline with Tween-80
[24] = dose: 200.0 mg/kg/injection, schedule: Q04DX002 (ip), vehicle: saline with Tween-80
[25] = dose: 400.0 mg/kg/injection, schedule: Q04DX002 (ip), vehicle: saline with Tween-80
[26] = dose: 75.0 mg/kg/injection, schedule: Q01DX001 (ip), vehicle: saline
[27] = dose: 150.0 mg/kg/injection, schedule: Q01DX001 (ip), vehicle: saline

Measured: T/C

O=C(O)CCC(=O)Nc1ccccc1CC(c1c[nH]c2ccccc12)c1c[nH]c2ccccc12
inactive: dose: 50.0 mg/kg/injection, schedule: Q01DX001 (ip), vehicle: saline 106 % of control | [1] 104 % of control | [2] 106 % of control | [3] 104 % of control

Nc1ccc2scnc2c1
inactive: [4] 98 % of control | [5] 98 % of control | [6] 92 % of control

COC(=O)C1(C)CCCC2(C)c3cc(OC)ccc3C3OC3C12 (stereo not given)
inactive: dose: 100.0 mg/kg/injection, schedule: Q04DX003 (ip), vehicle: other 103 % of control | dose: 200.0 mg/kg/injection, schedule: Q04DX003 (ip), vehicle: other 100 % of control | dose: 400.0 mg/kg/injection, schedule: Q04DX003 (ip), vehicle: other 101 % of control

COc1cccc(C(=O)O)c1C(=O)c1ccc(C)cc1O
inactive: [7] 100 % of control | [8] 97 % of control | [9] 90 % of control

CNC(=O)Nc1ccccc1C(=O)OC
inactive: [10] 100 % of control | [11] 97 % of control | [12] 98 % of control | [13] 97 % of control | [14] 98 % of control | [15] 101 % of control

O=C(c1ccccc1)C(O)(CCP(=O)(c1ccccc1)c1ccccc1)c1ccccc1 (stereo not given)
inactive: [16] 88 % of control | dose: 150.0 mg/kg/injection, schedule: Q01DX001 (ip), vehicle: carboxymethylcellulose (CMC) 96 % of control

O=C(O)CN1C(=O)C2CC=CCC2C1=O (stereo not given)
inactive: [17] 91 % of control | [18] 96 % of control | [19] 96 % of control | [20] 93 % of control | [21] 86 % of control | [22] 91 % of control

C=C1Sc2ccccc2N1C
inactive: dose: 6.25 mg/kg/injection, schedule: Q01DX015 (ip), vehicle: saline 97 % of control | dose: 12.5 mg/kg/injection, schedule: Q01DX015 (ip), vehicle: saline 97 % of control | dose: 25.0 mg/kg/injection, schedule: Q01DX015 (ip), vehicle: saline 95 % of control | dose: 50.0 mg/kg/injection, schedule: Q01DX015 (ip), vehicle: saline 91 % of control

CN1C2CNC(=O)CC1C1CCC2C1 (stereo not given)
inactive: dose: 25.0 mg/kg/injection, schedule: Q04DX002 (ip), vehicle: saline 94 % of control | dose: 50.0 mg/kg/injection, schedule: Q04DX002 (ip), vehicle: saline 102 % of control | [16] 106 % of control

NC(N)=N/N=C/c1ccccc1C(=O)O
inactive: dose: 62.5 mg/kg/injection, schedule: Q01DX Z (ip), vehicle: saline 106 % of control | dose: 125.0 mg/kg/injection, schedule: Q01DX Z (ip), vehicle: saline 106 % of control | dose: 250.0 mg/kg/injection, schedule: Q01DX Z (ip), vehicle: saline 101 % of control | dose: 500.0 mg/kg/injection, schedule: Q01DX Z (ip), vehicle: saline 100 % of control

COc1c2occc2c(OC)c2c(=O)cc(/C=C/c3cccnc3)oc12
inactive: [1] 97 % of control | [2] 101 % of control | [3] 101 % of control

CC(C)/[N+]([O-])=C/C=C/c1ccccc1
inactive: [11] 96 % of control | [13] 97 % of control | [15] 100 % of control

NNC(=O)CC(NN)c1ccccc1O (stereo not given)
inactive: [23] 90 % of control | [24] 100 % of control | [25] 102 % of control

Cc1cc(CSc2ssc(=S)c2-c2ccccc2)c(CSc2ssc(=S)c2-c2ccccc2)cc1C
inactive: [4] 94 % of control | [7] 112 % of control | [5] 92 % of control | [8] 106 % of control | [6] 96 % of control | [9] 95 % of control

C=C(C)c1c2ccccc2cc2cccc(Sc3ccccc3)c12
inactive: [7] 95 % of control | [8] 96 % of control | [9] 95 % of control

Cc1ccc(Cl)cc1N=Cc1cccc([N+](=O)[O-])c1
inactive: dose: 75.0 mg/kg/injection, schedule: Q04DX003 (ip), vehicle: Klucel (hydroxypropylcellulose) (HPC) 96 % of control | dose: 100.0 mg/kg/injection, schedule: Q01DX001 (ip), vehicle: Klucel (hydroxypropylcellulose) (HPC) 100 % of control | dose: 150.0 mg/kg/injection, schedule: Q04DX003 (ip), vehicle: Klucel (hydroxypropylcellulose) (HPC) 93 % of control | dose: 200.0 mg/kg/injection, schedule: Q01DX001 (ip), vehicle: Klucel (hydroxypropylcellulose) (HPC) 97 % of control | dose: 300.0 mg/kg/injection, schedule: Q04DX003 (ip), vehicle: Klucel (hydroxypropylcellulose) (HPC) 93 % of control | dose: 400.0 mg/kg/injection, schedule: Q01DX001 (ip), vehicle: Klucel (hydroxypropylcellulose) (HPC) 101 % of control

CN1C2CCCCC1C1CCCCC2[N+]1(C)C
inactive: [26] 96 % of control

COc1ccc(NC(=S)NC(=O)COc2ccccc2)cc1
inactive: [4] 101 % of control and 107 % of control | [23] 107 % of control and 87 % of control | [5] 102 % of control | [24] 100 % of control and 90 % of control | [6] 89 % of control | [25] 106 % of control

O=C1/C(=C\c2ccccc2)OC(c2ccccc2)O/C1=C/c1ccccc1 (stereo not given)
inactive: [17] 91 % of control | [18] 91 % of control | [19] 98 % of control | [20] 96 % of control | [21] 88 % of control | [22] 98 % of control

Cc1ccc(NC(=S)NC(=O)c2cccc([N+](=O)[O-])c2)cc1C
inactive: dose: 50.0 mg/kg/injection, schedule: Q01DX009 (ip), vehicle: saline with Tween-80 97 % of control and 112 % of control | dose: 100.0 mg/kg/injection, schedule: Q01DX001 (ip), vehicle: saline with Tween-80 92 % of control | dose: 100.0 mg/kg/injection, schedule: Q04DX002 (ip), vehicle: alcohol 93 % of control and 103 % of control | [7] 95 % of control | dose: 200.0 mg/kg/injection, schedule: Q01DX001 (ip), vehicle: saline with Tween-80 101 % of control | dose: 200.0 mg/kg/injection, schedule: Q04DX002 (ip), vehicle: alcohol 93 % of control and 103 % of control | [8] 94 % of control | dose: 400.0 mg/kg/injection, schedule: Q01DX001 (ip), vehicle: saline with Tween-80 98 % of control | dose: 400.0 mg/kg/injection, schedule: Q04DX002 (ip), vehicle: alcohol 93 % of control and 98 % of control | [9] 106 % of control

CCOC(=O)c1cnc2onc(C)c2c1Nc1cccc(C(F)(F)F)c1
inactive: [11] 90 % of control | [13] 97 % of control | [15] 101 % of control

CCC(CC)C[N+](C)(C)C
inactive: [26] 95 % of control | [27] 104 % of control

Cc1cc(=O)[nH]c(N/N=C/c2ccco2)n1
inactive: dose: 50.0 mg/kg/injection, schedule: Q01DX009 (ip), vehicle: Klucel (hydroxypropylcellulose) (HPC) 96 % of control | [10] 96 % of control | [11] 87 % of control | [12] 95 % of control | [13] 90 % of control

O=C[N]([Hg][Cl])c1ccccc1
inactive: dose: 0.39 mg/kg/injection, schedule: Q01DX009 (ip), vehicle: saline with Tween-80 102 % of control | dose: 0.78 mg/kg/injection, schedule: Q01DX009 (ip), vehicle: saline with Tween-80 102 % of control | dose: 1.56 mg/kg/injection, schedule: Q01DX009 (ip), vehicle: saline with Tween-80 87 % of control | dose: 1.56 mg/kg/injection, schedule: Q01DX009 (ip), vehicle: saline 94 % of control

CCCCCCOC(=O)N1CCN(c2ccccc2)CC1
inactive: dose: 50.0 mg/kg/injection, schedule: Q01DX009 (ip), vehicle: saline 106 % of control | [17] 92 % of control | [19] 90 % of control

OC1CC=CC=CC1
inactive: [26] 94 % of control | [27] 97 % of control

COc1ccc2c(c1OC)CCN1C3=C(CC4(CC3)OCCO4)C(=O)CC21 (stereo not given)
inactive: [7] 97 % of control | [8] 88 % of control | [9] 101 % of control

C=CCNC(=S)NNC(=O)c1ccncc1
inactive: [10] 107 % of control | [12] 108 % of control | [14] 104 % of control
